Assay results published in patent US20260159474A1, “Aminoindane Compounds and Compositions and Methods of Their Therapeutic Use” (Solvonis Therapeutics Ireland Holdings Limited, priority 2021, published 2026).
“And” between values parts separate entries of the source, which are not always exact repeats. Identical values can stand only once.

Test system: extracellular serotonin (5-HT) in the nucleus accumbens (NAcc)
Test: In vivo microdialysis in rat nucleus accumbens, serotonin
Design: species or system Sprague Dawley rats
Settings: 7 mg/kg I.P.; for peak 5-HT level: baseline = 100%; for Serotonin (5-HT) level (% from baseline): rat NAcc
Experimental: Methods and Procedure: This study was conducted in compliance with previously described procedures to assure data integrity, adherence to GLP regulations, and standard preclinical study and surgery procedures. The in vivo microdialysis technique was applied to measure the over-time variations of DA, 5-HT, and NE extracellular (EC) concentrations in conscious, freely-moving Sprague Dawley rats. Levels of the neurotransmitters in microdialysis samples were determined using LC-MS/MS analysis. The experiment was also conducted with MDMA for comparative purposes.
As it relates to cannula implantation, the rats were anesthetized with isoflurane 4% in oxygen (2-2.5 L/min), then the isoflurane concentration 2-2.5% was maintained via a nose cone adapted to the stereotaxic apparatus. The rats were treated with meloxicam (0.2 mg/kg, subcutaneously, sc; Meloxidolor) and amoxicilline (150 mg/kg, sc, Betamox LA). The skull was then shaved and disinfected. Rats were then placed in a stereotaxic apparatus for small animals. One vertical guide cannula was inserted through a 1 mm hole drilled on the exposed skull. Coordinates, with respect to the bregma to target specific brain areas, followed indications from stereotaxic atlas of the rat brain. Specifically a guide cannula (MAB 4.12.IC, Agn Tho's AB, Lidinga, Sweden) was inserted in the NAcc (anteroposterior+1.6; lateral −1.6; dorsoventral −6.0). The guide cannula was then secured with dental cement and 2-4 screws. At the end of the surgery the animal was isolated in a single cage during recovery, for a period of at least one week, during which animal health conditions were checked twice daily and the weight recorded twice a week. Animals continued to be housed singly throughout the experiment. One day before the experiment the cannula stylet was removed and a microdialysis probe with a dialyzing length of 2 mm (MAB 4.12.2 Cu, Agn Tho's AB, Lidingo, Sweden) was inserted. Probes can be re-used 2 times for 2 experimental sessions after appropriate cleaning with fresh milliQ water.
Post-surgery, the rats were maintained in a heating chamber prior to waking up in order to avoid hypothermia that could be caused by anaesthesia. 5 mL of physiologic solution was subcutaneously administered immediately after surgery, and once/day for 2-3 days, if signs of dehydration are noticed. Meloxicam (Meloxidolor) 0.2 mg/kg was again administered subcutaneously the day after surgery as well as after 48 h after surgery together with Amoxicilline Long Acting (Betamox LA) 150 mg/kg. Health status and body weight was checked every day during the first week.
The animals were treated with the therapeutic compounds, and MDMA, or their vehicle (saline) according to a Latin square design over 5 separate experimental days (one day/week). The treatments were administered in a volume of 1 mL/kg intraperitoneally.
On the day of the experiment, each animal was taken into the laboratory in its home cage. Inlet tubing of the probe was attached to a dual quartz-lined two channel liquid swivel mounted on a low mass spring counterbalance arm which, in turn, was connected to a gas-tight syringe on a microinfusion pump. […] An equilibration period of about two hours of perfusion was allowed before collecting samples. Following the equilibration period, 4 basal samples were collected for each experimental animal followed by further 10 post-treatment samples. Samples were collected every 20 minutes (up to 3 hours and 20 minutes post-treatment) by means of a refrigerated auto-sampler (Univentor 820 Microsampler, AgnTho's, Sweden) maintained at +8 “C. At the end of all experimental sessions, 2 μL of 0.1% methylene blue solution was injected through the microdialysis probe, animals were euthanized, and their brains removed to confirm the correct probe-position.
As mentioned, the concentration of DA, 5-HT and NE in CSF samples were determined using an optimized method based on LC-MS/MS analysis. […]

Compound	time at which 5-HT levels returned to baseline (rat NAcc microdialysis)	time of peak 5-HT level (rat NAcc microdialysis)	peak 5-HT level (rat NAcc microdialysis)	Serotonin (5-HT) level (% from baseline) (0 min (basal sample))	Serotonin (5-HT) level (% from baseline) (20 min post-admin)	Serotonin (5-HT) level (% from baseline) (40 min post-admin)	Serotonin (5-HT) level (% from baseline) (60 min post-admin)	Serotonin (5-HT) level (% from baseline) (80 min post-admin)	Serotonin (5-HT) level (% from baseline) (100 min post-admin)	Serotonin (5-HT) level (% from baseline) (120 min post-admin)	Serotonin (5-HT) level (% from baseline) (140 min post-admin)	Serotonin (5-HT) level (% from baseline) (160 min post-admin)	Serotonin (5-HT) level (% from baseline) (180 min post-admin)	Serotonin (5-HT) level (% from baseline) (200 min post-admin)	Serotonin (5-HT) level (% from baseline) (−20 min (basal sample))	Serotonin (5-HT) level (% from baseline) (180 min post-admin, 7 mg/kg)	peak 5-HT level (rat NAcc microdialysis, 7 mg/kg)
COC(=O)c1ccc2c(c1)CC(N)C2 (stereo not shown) [CMP-405, 2-aminoindane-5-methylcarboxylate]	180 min	60 min	289%	97%	114%	353%	289%	182%	157%	140%	115%	113%	100%	105%	103%		
CNC(C)Cc1ccc2c(c1)OCO2 (stereo not shown) [MDMA]		60 min	2232%	98%	135%	2000%	2232%	1780%	1545%	1472%	1255%	1083%		871%	102%	980% and 972%	
COc1ccc2c(c1)CC(N)C2 (stereo not shown) [MEAI, 5-methoxy-2-aminoindane]		40 min		98%	446%	2365%	2248%	1391%	1036%	830%	688%	564%		340%	102%	470%	2365% and ~2500%
